Data taken from patent publication US20040171543A1, “Matrix metalloproteinase inhibitors and methods for identification of lead compounds” (priority 2002, published 2004).
pIC50: −log10 of the molar value. Read-outs that look alike come from different tables or passages of the source. Marks after values point to notes of the source that are not given here.

Experiments:
[1] = target: T1, MMP-13 catalytic domain (MMP-13CD) (Homo sapiens, UniProt P45452); assay: Fluorigenic peptide-1 substrate based assay, MMP-13CD, with/without AcNHOH; assay type: biochemical; settings: IC50 with AcNHOH divided by IC50 without
T1 construct: The catalytic domain of the MMP-13 enzyme, namely matrix metalloproteinase-13 catalytic domain (“MMP-13CD”)
Protocol: The catalytic domain of the MMP-13 enzyme, namely matrix metalloproteinase-13 catalytic domain (“MMP-13CD”), rather than the corresponding full-length enzyme, MMP-13 was used in such assay.
50 mM HEPES buffer (pH 7.0)
2% DMSO (with or without inhibitor test compound)
1. Dispensed 2 μL inhibitor test sample (in 100% DMSO) into well.
2. Added 88 μL assay mixture and mixed well, avoiding bubbles.
3. Initiated reactions with 10 μL of 5 nM MMP-13CD; mixed well, avoiding bubbles.
4. Immediately measured the kinetics of the reactions at room temperature.
Alternatively, an endpoint read can also be used to determine reaction velocity provided the initial fluorescence of the solution, as recorded before addition of enzyme, is subtracted from the final fluorescence of the reaction mixture.

MMP-1 [2] = target: T2, MMP-1 (Homo sapiens, UniProt P03956); assay: TPL (thiopeptolide) assay, MMP-1; assay type: biochemical
T2 sequence (P03956 100-469): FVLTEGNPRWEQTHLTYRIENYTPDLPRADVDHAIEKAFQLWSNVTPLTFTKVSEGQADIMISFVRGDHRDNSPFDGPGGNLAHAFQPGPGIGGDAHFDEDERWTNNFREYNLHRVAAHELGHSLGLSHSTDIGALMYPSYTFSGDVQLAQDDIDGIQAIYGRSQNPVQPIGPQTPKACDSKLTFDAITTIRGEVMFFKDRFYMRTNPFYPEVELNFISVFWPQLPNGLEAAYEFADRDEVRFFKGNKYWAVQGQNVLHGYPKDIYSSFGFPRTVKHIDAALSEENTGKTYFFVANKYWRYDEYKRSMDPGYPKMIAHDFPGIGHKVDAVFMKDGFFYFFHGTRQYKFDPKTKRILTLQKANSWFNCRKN
From the text: (§1) The assays that can be used to evaluate the biological activity of various compounds for inhibiting MMPs are well-known and routinely used by those skilled in the art. They measure the amount by which a test compound reduces the hydrolysis of a thiopeptolide substrate caused by a matrix metalloproteinase enzyme. Such assays are described in detail by Ye et al., in Biochemistry, 1992;31(45): 11231-11235, which is incorporated herein by reference.
(§2) Thiopeptolide substrates show virtually no decomposition or hydrolysis in the absence of a matrix metalloproteinase enzyme. A typical thiopeptolide substrate commonly utilized for assays is Ac-Pro-Leu-Gly-thioester-Leu-Leu-Gly-OEt. A 100 μL assay mixture will contain 50 mM of 2-morpholinoethane sulfonic acid monohydrate (MES, pH 6.0) 10 mM CaCl2, 100 μM thiopeptolide substrate, and 1 mM 5,5′-dithio-bis-(2-nitro-benzoic acid) (DTNB). The thiopeptolide substrate concentration is varied from 10 to 800 μM to obtain Km and Kcat values. The change in absorbance at […] is monitored on a Thermo Max microplate reader (Molecular Devices, Menlo Park, Calif.) at room temperature (22° C.). The calculation of the amount of hydrolysis of the thiopeptolide substrate is based on E412=13600 m^−1 cm^−1 for the DTNB-derived product 3-carboxy-4-nitrothiophenoxide. Assays are carried out with and without matrix metalloproteinase inhibitor compounds, and the amount of hydrolysis is compared for a determination of inhibitory activity of the test compounds.

MMP-2 = target: T3, MMP-2 (Homo sapiens, UniProt P08253); assay: TPL (thiopeptolide) assay, MMP-2; assay type: biochemical
T3 sequence (P08253 110-660): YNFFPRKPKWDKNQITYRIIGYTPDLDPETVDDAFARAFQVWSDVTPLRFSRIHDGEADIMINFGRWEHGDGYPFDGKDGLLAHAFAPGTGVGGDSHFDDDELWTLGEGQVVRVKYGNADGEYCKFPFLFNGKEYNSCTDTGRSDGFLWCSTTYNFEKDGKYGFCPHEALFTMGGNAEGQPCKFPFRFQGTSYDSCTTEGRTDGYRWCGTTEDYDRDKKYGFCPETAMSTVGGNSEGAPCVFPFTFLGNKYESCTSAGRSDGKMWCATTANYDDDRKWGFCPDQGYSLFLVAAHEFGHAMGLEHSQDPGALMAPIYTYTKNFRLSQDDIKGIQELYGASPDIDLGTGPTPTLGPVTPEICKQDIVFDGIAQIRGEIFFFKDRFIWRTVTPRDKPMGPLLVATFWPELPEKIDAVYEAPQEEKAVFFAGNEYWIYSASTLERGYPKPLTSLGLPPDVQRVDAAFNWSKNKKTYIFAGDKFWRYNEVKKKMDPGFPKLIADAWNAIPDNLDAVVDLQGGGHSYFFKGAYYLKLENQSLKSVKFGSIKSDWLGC
From the text: as §1, §2

MMP-3 = MMP-3 (Homo sapiens, UniProt P08254); assay: TPL (thiopeptolide) assay, MMP-3; assay type: biochemical
From the text: as §1, §2

MMP-9 [3] = target: T4, MMP-9 (Homo sapiens, UniProt P14780); assay: TPL (thiopeptolide) assay, MMP-9; assay type: biochemical
From the text: as §1, §2

MMP-12 = MMP-12 (Homo sapiens, UniProt P39900); assay: TPL (thiopeptolide) assay, MMP-12 (without and with AH); assay type: biochemical
From the text: as §1, §2
Although ligand size is not critical, a bulky ligand will block more binding sites of the MMP than a smaller ligand, and may thus prevent potential inhibitors that bind close to, but not at, the functional metal cation from being identified. Suitable ligands are therefore low molecular weight molecules, e.g. acetohydroxamic acid (CH3CONHOH) whose use is preferred.

MMP-14 = MMP-14 (Homo sapiens, UniProt P50281); assay: TPL (thiopeptolide) assay, MMP-14; assay type: biochemical
From the text: as §1, §2

MMP-7 = target: T5, MMP-7 (Homo sapiens, UniProt P09237); assay: TPL (thiopeptolide) assay, MMP-7; assay type: biochemical
T5 sequence (P09237 95-267): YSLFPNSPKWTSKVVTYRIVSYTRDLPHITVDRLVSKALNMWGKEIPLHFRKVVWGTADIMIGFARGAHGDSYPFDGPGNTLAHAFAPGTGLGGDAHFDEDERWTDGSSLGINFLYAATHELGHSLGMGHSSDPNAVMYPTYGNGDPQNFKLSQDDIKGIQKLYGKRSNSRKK
From the text: as §1
as §2, with “Assays are carried out with and without matrix metalloproteinase inhibitor compounds, and the amount of hydrolysis is compared for a determination of inhibitory activity of the test compounds.” left out

MMP-8 = MMP-8 (Homo sapiens, UniProt P22894); assay: TPL (thiopeptolide) assay, MMP-8; assay type: biochemical
From the text: as §1
as §2, with “Assays are carried out with and without matrix metalloproteinase inhibitor compounds, and the amount of hydrolysis is compared for a determination of inhibitory activity of the test compounds.” left out

MMP-13 [4] = target: T6, MMP-13 (Homo sapiens, UniProt P45452); assay: TPL (thiopeptolide) assay, MMP-13 (without and with AH); assay type: biochemical
Protocol: Thiopeptolide substrates show virtually no decomposition or hydrolysis in the absence of a matrix metalloproteinase enzyme. A typical thiopeptolide substrate commonly utilized for assays is Ac-Pro-Leu-Gly-thioester-Leu-Leu-Gly-OEt. A 100 μL assay mixture will contain 50 mM of 2-morpholinoethane sulfonic acid monohydrate (MES, pH 6.0) 10 mM CaCl2, 100 μM thiopeptolide substrate, and 1 mM 5,5′-dithio-bis-(2-nitro-benzoic acid) (DTNB). […] The change in absorbance at 405 mm is monitored on a Thermo Max microplate reader (Molecular Devices, Menlo Park, Calif.) at room temperature (22° C.). […] Assays are carried out with and without matrix metalloproteinase inhibitor compounds, and the amount of hydrolysis is compared for a determination of inhibitory activity of the test compounds.

MMP-13 [5] = target: T6, MMP-13; settings: Chen et al.; cited from earlier work
MMP-1 [6] = target: T2, MMP-1; settings: Chen et al.; cited from earlier work
MMP-9 [7] = target: T4, MMP-9; settings: Chen et al.; cited from earlier work
TACE = TACE (Homo sapiens, UniProt P78536); settings: Chen et al.; cited from earlier work
[8] = TPL assay, without AH, read-out: IC50 MMP-12
[9] = TPL assay, without AH, read-out: IC50 MMP-13

Chain of MMP-12 (P39900 106-470): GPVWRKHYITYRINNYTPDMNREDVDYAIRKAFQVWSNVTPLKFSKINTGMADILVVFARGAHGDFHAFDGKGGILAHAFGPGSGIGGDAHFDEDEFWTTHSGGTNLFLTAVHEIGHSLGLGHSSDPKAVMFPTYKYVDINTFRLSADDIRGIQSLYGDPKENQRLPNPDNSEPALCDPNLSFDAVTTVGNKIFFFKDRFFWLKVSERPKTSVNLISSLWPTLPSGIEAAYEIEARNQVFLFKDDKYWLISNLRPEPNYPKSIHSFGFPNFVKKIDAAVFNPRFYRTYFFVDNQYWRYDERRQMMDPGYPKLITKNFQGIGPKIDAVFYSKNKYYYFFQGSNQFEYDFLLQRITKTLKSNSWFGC
T4 sequence (P14780 94-707): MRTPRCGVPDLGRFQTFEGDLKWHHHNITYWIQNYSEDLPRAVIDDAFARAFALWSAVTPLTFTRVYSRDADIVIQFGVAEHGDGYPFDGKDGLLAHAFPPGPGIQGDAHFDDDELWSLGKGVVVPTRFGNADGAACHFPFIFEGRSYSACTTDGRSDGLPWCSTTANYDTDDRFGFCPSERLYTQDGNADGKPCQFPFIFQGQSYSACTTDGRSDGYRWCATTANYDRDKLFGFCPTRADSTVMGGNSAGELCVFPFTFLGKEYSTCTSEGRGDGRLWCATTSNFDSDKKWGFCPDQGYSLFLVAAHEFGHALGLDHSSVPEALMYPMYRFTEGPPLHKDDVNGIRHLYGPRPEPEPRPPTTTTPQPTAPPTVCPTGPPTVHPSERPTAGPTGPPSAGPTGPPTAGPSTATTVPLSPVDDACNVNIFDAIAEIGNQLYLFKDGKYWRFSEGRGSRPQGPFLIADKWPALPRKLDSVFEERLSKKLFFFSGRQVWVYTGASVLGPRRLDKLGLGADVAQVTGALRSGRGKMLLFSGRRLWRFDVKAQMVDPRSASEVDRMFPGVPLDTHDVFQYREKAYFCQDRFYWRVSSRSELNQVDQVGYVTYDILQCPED
Chain of MMP-3 (P08254 100-477): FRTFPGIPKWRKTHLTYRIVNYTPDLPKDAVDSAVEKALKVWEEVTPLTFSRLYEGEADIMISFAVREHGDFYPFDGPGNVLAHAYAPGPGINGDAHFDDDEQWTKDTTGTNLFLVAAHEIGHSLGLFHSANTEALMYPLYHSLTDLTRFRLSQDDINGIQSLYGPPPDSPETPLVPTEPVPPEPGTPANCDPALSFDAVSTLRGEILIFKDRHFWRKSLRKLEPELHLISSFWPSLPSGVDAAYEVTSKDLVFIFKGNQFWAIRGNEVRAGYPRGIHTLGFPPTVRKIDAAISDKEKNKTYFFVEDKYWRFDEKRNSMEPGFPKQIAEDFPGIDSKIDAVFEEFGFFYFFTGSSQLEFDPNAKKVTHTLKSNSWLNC
Chain of TACE (P78536 215-824): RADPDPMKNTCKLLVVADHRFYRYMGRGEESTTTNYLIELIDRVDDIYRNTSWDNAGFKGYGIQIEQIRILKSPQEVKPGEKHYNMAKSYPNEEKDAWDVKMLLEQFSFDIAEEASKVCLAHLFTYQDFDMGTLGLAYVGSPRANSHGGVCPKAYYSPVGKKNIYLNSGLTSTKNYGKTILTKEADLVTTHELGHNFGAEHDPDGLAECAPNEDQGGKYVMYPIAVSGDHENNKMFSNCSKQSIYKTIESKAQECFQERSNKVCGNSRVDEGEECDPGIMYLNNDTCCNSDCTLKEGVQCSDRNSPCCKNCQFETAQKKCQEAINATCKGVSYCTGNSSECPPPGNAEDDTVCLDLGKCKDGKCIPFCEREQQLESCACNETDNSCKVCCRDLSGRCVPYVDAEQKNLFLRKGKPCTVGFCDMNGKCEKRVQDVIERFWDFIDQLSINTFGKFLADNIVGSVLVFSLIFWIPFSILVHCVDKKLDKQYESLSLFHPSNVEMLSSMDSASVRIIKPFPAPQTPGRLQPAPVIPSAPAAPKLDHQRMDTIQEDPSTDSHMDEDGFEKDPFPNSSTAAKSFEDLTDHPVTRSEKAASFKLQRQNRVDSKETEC
Chain of MMP-8 (P22894 101-467): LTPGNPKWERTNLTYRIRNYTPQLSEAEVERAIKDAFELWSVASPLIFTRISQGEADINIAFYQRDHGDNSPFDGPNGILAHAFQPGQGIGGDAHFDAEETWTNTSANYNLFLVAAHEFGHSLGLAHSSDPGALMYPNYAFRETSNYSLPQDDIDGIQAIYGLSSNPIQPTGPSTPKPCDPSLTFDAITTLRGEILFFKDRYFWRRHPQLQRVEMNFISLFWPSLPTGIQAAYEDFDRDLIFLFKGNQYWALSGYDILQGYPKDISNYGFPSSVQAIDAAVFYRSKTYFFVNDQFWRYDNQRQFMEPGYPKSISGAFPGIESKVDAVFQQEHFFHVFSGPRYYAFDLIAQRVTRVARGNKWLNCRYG

Row | Structure (SMILES) | IC50 Ratio (±) [1] | pIC50 (MMP-1 [2]; read-out: IC50 MMP-1) | pIC50 (MMP-2; read-out: IC50 MMP-2) | pIC50 (MMP-3; read-out: IC50 MMP-3) | pIC50 (MMP-9 [3]; read-out: IC50 MMP-9) | pIC50 (MMP-12; [8]) | pIC50 (MMP-14; read-out: IC50 MMP-14) | pIC50 (MMP-13 [4]; [9]) | also measured
1 | NS(=O)(=O)c1ccc(-c2ccc([N+](=O)O)cc2)cc1 [Entry 2] | 0.04 |  |  |  |  |  |  |  | 
2 | O=C(OCc1ccccc1)c1ccc2[nH]c(=O)n(Cc3ccccc3)c(=O)c2c1 [Example 4, 3-Benzyl-2,4-dioxo-1,2,3,4-tetrahydro-quinazoline-6-carboxylic acid benzyl ester] |  |  |  |  |  |  |  |  | pIC50 (MMP-1 [2]; unit inferred, read-out: Activities measured by TPL assays, MMP-1): < 4.52; pIC50 (MMP-2; unit inferred, read-out: Activities measured by TPL assays, MMP-2): < 4.00; pIC50 (MMP-3; unit inferred, read-out: Activities measured by TPL assays, MMP-3): < 4.52; pIC50 (MMP-7; unit inferred, read-out: Activities measured by TPL assays, MMP-7): < 4.52; pIC50 (MMP-9 [3]; unit inferred, read-out: Activities measured by TPL assays, MMP-9): < 4.00; pIC50 (MMP-13 [4]; TPL assay, unit inferred, read-out: Activities measured by TPL assays, MMP-13): 7.53; pIC50 (MMP-14; unit inferred, read-out: Activities measured by TPL assays, MMP-14): < 4.00
3 | Cc1cc(O)nc(SCc2ccc(Cl)cc2)n1 [Entry 4] | 0.07^a |  |  |  |  |  |  |  | 
4 | Nc1ccc(-c2ccc(S(N)(=O)=O)cc2)cc1 [Entry 1] | 0.47^a |  |  |  |  |  |  |  | 
5 | COc1ccc(NC(=O)Nc2ccc3nc(C)cc(N)c3c2)cc1 [Entry 3] | 0.56 |  |  |  |  |  |  |  | 
6 | O=C(NCCCCN1CCOCC1)c1cc2ccccc2o1 [CL-82198] |  |  |  |  |  |  |  |  | Inhibition of MMP-13 (MMP-13 [5]): weak inhibition; Activity against MMP-1 (MMP-1 [6]): complete lack of activity; Activity against MMP-9 (MMP-9 [7]): complete lack of activity; Activity against TACE (TACE): complete lack of activity

More lines, main results first:

Row | IC50 Ratio (±) [1] | pIC50 (MMP-1 [2]; read-out: IC50 MMP-1) | pIC50 (MMP-2; read-out: IC50 MMP-2) | pIC50 (MMP-3; read-out: IC50 MMP-3) | pIC50 (MMP-9 [3]; read-out: IC50 MMP-9) | pIC50 (MMP-12; [8]) | pIC50 (MMP-14; read-out: IC50 MMP-14) | pIC50 (MMP-13 [4]; [9]) | Structure (SMILES) | also measured
7 |  | < 4.00 | < 4.00 | 6.66 | < 4.52 | < 4.52 | < 4.00 |  | COc1ccc(CC#Cc2ccc3ncn(Cc4ccc(C(=O)O)cc4)c(=O)c3c2)cc1 [Example 1, 4-{6-[3-(4-Methoxy-phenyl)-prop-1-ynyl]-4-oxo-4H-quinazolin-3-ylmethyl}-benzoic acid] | 
8 |  | < 4.52 | < 4.52 | < 4.52 | < 4.52 | < 6.40 | < 4.52 | 9.85 | O=C(O)c1ccc(CNC(=O)c2cc(-c3ccc(OC(F)(F)F)cc3)cs2)cc1 [Example 5, 4-({[4-(4-Trifluoromethoxyphenyl)thien-2-yl]carboxamido}methyl) benzoic acid] | pIC50 (MMP-7; read-out: IC50 MMP-7): < 4.52; pIC50 (MMP-8): < 4.52; pIC50 (MMP-12; in presence of acetohydroxamic acid (+AH), read-out: IC50 MMP12 (+AH)): 7.92; pIC50 (MMP-13 [4]; in presence of acetohydroxamic acid (+AH), read-out: IC50 MMP13 (+AH)): 7.20
9 |  | < 4.00 | < 4.00 | 6.80 | < 4.00 | 5.47 | < 4.00 | 8.92 | COc1cccc(COC(=O)c2cc3c(=O)n(Cc4ccc(-c5nn[nH]n5)cc4)c(=O)[nH]c3s2)c1 [Example 3, 2,4-Dioxo-3-[4-(2H-tetrazol-5-yl)-benzyl]-1,2,3,4-tetrahydro-thieno[2,3-d]pyrimidine-6-carboxylic acid 3-methoxy-benzyl ester] | 
10 |  | < 4.00 | < 4.00 | 6.08 | < 4.52 | < 4.00 | < 4.00 | 9.74 | COc1ccc(CC#Cc2ccc3c(c2)c(=O)n(Cc2ccc(C(=O)O)cc2)c(=O)n3C)cc1 [Example 2, 4-{6-[3-(4-Methoxy-phenyl)-prop-1-ynyl]-1-methyl-2,4-dioxo-1,4-dihydro-2H-quinazolin-3-ylmethyl}-benzoic acid] | 
